In article PMC7434893 (British Journal of Cancer, 2020):
pIC50: −log10 of the molar value. Values after ≈ are worked out from the molar mass of the structure shown. “Also recorded” adds a separate entry of the source.

Experiments:
JVM-2 = assay: 8-day growth inhibition; type: cell-based; settings: MCL, JVM-2, 8-day assay
HCC1143 = assay: 8-day growth inhibition; type: cell-based; settings: Breast, HCC1143, 8-day assay
HL-60 = assay: 8-day growth inhibition; type: cell-based; settings: Promyelocytic leukemia, HL-60, 8-day assay
HEC-108 = assay: 8-day growth inhibition; type: cell-based; settings: Endometrial, HEC-108, 8-day assay
NCI-H446 = assay: 8-day growth inhibition; type: cell-based; settings: SCLC, NCI-H446, 8-day assay
Pfeiffer = assay: 8-day growth inhibition; type: cell-based; settings: DLBCL (GC), 8-day assay
A549 = assay: 8-day growth inhibition; type: cell-based; settings: NSCLC, A549, 8-day assay
MFE-280 = assay: 8-day growth inhibition; type: cell-based; settings: Endometrial, MFE-280, 8-day assay
Namalwa = assay: 8-day growth inhibition; type: cell-based; settings: Burkitt's lymphoma, 8-day assay
Mino = assay: 8-day growth inhibition; type: cell-based; settings: MCL, 8-day assay
THP-1 = assay: 8-day growth inhibition; type: cell-based; settings: AML, THP-1, 8-day assay
RPMI-8226 = assay: 8-day growth inhibition; type: cell-based; settings: Myeloma, RPMI-8226, 8-day assay
KG-1 = assay: 8-day growth inhibition; type: cell-based; settings: AML, KG-1, 8-day assay
SNG-ll = assay: 8-day growth inhibition; type: cell-based; settings: Endometrial, 8-day assay
U266 = assay: 8-day growth inhibition; type: cell-based; settings: Myeloma, U266, 8-day assay
advanced solid tumours = assay: Tumour response by RECIST 1.1; type: in vivo, human
Method: Tumour assessments (computed tomography, magnetic resonance imaging, photographs and bone scans, as suitable for tumour type), based on Response Evaluation Criteria in Solid Tumors version 1.1, were performed at screening and subsequently every 8 weeks until disease progression.

MV-4-11 = assay: 8-day growth inhibition; type: cell-based; settings: AML, MV-4-11, 8-day assay
PARP = assay: Sigmoidal inhibitory indirect-response PK/PD model of PAR formation; type: in vivo, human; settings: model estimate
Method: The PD measurement utilised in the PK/PD model was the percentage inhibition of the formation of PAR, a marker for PARP activity,[19] which was calculated as % inhibition = […], where baseline was defined as the PAR response at time 0 on day –2.
The model parameters from the PK/PD analysis were then used to simulate the expected PAR responses of additional dosing regimens of E7449. All PK/PD modelling and subsequent response simulations were performed using Phoenix WinNonlin®, version 7.

O=c1[nH]nc2c3c(cccc13)N=C(CN1Cc3ccccc3C1)N2 [E7449] gave a pIC50 (JVM-2) of 4.85, a pIC50 (HCC1143) of 5.43 and a pIC50 (HL-60) of 4.99. The pIC50 (HEC-108) was 5.22, the pIC50 (NCI-H446) was 6.21 and the pIC50 (Pfeiffer) was 6.15. The pIC50 (A549) was 5.66, the pIC50 (MFE-280) was 6.11 and the pIC50 (Namalwa) was 5.60. The pIC50 (Mino) was 5.47, the pIC50 (THP-1) was 5.27 and the pIC50 (RPMI-8226) was 5.03. It also gave a pIC50 (KG-1) of 5.70, a pIC50 (SNG-ll) of 5.28 and a pIC50 (U266) of 5.17. For the same compound, the “ORR in patients with germline-mutated BRCA” value (advanced solid tumours; 1/6) was 16.7%, the “Objective response rate (ORR)” value (advanced solid tumours; 2/41, all cohorts) was 4.9% and the “Patients with BRCA mutations with partial response or stable disease” value (advanced solid tumours; 3/6) was 50%. For the same compound, the “Best overall response of stable disease, patients” value (advanced solid tumours; 13 of 41 patients) was 31.7%, the “Median duration of stable disease” value (advanced solid tumours; 13 patients) was 162 days and the “Best Overall Response to E7449” value (advanced solid tumours; BRCA-mutated patient, platinum naïve, breast) was “Progressive Disease”. For the same compound, the “Best Overall Response to E7449” value (advanced solid tumours; BRCA-mutated patient, platinum naïve, pancreas) was “Stable Disease”, the “Best Overall Response to E7449” value (advanced solid tumours; BRCA-mutated patient, platinum resistant, breast) was “Progressive Disease” and the “Best Overall Response to E7449” value (advanced solid tumours; BRCA-mutated patients, platinum sensitive, ovary (one line per patient)) was “Stable Disease; also recorded: Partial Response; also recorded: Progressive Disease”. For the same compound, the “Patients with durable (>23 weeks) stable disease” value (advanced solid tumours; of 13 patients with SD) was 8, the “Patients with a decrease in target lesion size” value (advanced solid tumours; of the 35 patients evaluated for best overall response) was 13 and the “Partial responses, patients” value (advanced solid tumours; ovarian cancer, 1 each in 600-mg and 800-mg cohorts) was 2. For the same compound, the pIC50 (MV-4-11) was 6.02, the kout (PARP) was 0.52 h⁻¹ and the EC50 (PARP; plasma concentration, inhibition of PAR formation in PBMCs) was 0.11 µg/mL (≈ 0.347 µM). The kin (PARP; rate of formation of PAR) was 35.5 h⁻¹.
